Test results reported in PMC5513871 (British Journal of Pharmacology, 2017).
pIC50: −log10 of the molar value. Like-named read-outs stand apart in the source and are kept apart here.

Experiments:
[1] = system: normal dogs under anaesthesia; conditions: 1 μmol/kg/min; ref Roza and Berman, 1971; cited from earlier work
[2] = system: IKACh; conditions: read-out: IC50 IKACh; ref Filgueiras‐Rama et al., 2012; cited from earlier work
[3] = system: Langendorff‐perfused sheep heart; conditions: ref Noujaim et al., 2011; cited from earlier work
[4] = system: IK1; conditions: read-out: IC50 IK1; ref Filgueiras‐Rama et al., 2012; cited from earlier work
[5] = system: IKATP; conditions: read-out: IC50 IKATP; ref Filgueiras‐Rama et al., 2012; cited from earlier work
[6] = system: AF goat model; conditions: cited from earlier work
[7] = system: cAVB dogs; assay: Proarrhythmia test; assay type: in vivo, dog; conditions: cAVB dogs n = 9, paced 1 Hz; PA‐6 2.5 mg/kg/10 min, dofetilide 0.025 mg/kg/5 min
[8] = system: anaesthetized SR dogs; conditions: 4 mg/kg/40 min, at 40 min; ref Yokoyama et al. (2009); cited from earlier work
[9] = awake goats, 1 week of AF, ref Eijsbouts et al., 2006
[10] = awake goats, 4 weeks of AF, ref Eijsbouts et al., 2006
[11] = awake goats, 8 weeks of AF, ref Eijsbouts et al., 2006
[12] = awake goats, 16 weeks of AF, ref Eijsbouts et al., 2006

In the case of `[Ba+2].[Cl-].[Cl-]` [BaCl2], the “Course of events upon infusion” value [1] is listed as “hypotension, flaccid paralysis of skeletal muscles, ventricular tachycardia and fibrillation”.
For `CCN(CC)CCCC(C)Nc1ccnc2cc(Cl)ccc12` (stereo not shown) [chloroquine], the pIC50 [2] is given as 6.42, the “Concentration terminating cholinergically induced AF” value [3] is given as 10 µM and the pIC50 [4] is given as 6.16. For the same compound, the pIC50 [5] was 6.29.
In the case of `c1ccc(C2(c3ccccc3)CC2C2=NCCN2)cc1` (stereo not shown) [cibenzoline], the Cardioversion rate ([6]; 3 to 4 weeks of pacing induced persistent AF, ref Eijsbouts et al., 2006) is given as 78%, the Cardioversion rate [6, 9] is given as 80% and the Cardioversion rate [6, 10] is given as 78%. The Cardioversion rate [6, 11] was 67% and the Cardioversion rate [6, 12] was 63%.
In the case of `CN(CCOc1ccc(NS(C)(=O)=O)cc1)CCc1ccc(NS(C)(=O)=O)cc1` [dofetilide], the LVMAPD80 [7] was 400 ± 64 ms, the QTc [7] was 600 ± 33 ms and the STV [7] was 1.82 ± 0.88 ms.
For `CC(C)NC[C@@H](O)c1ccc(NS(C)(=O)=O)cc1` [d‐Sotalol], the Cardioversion rate ([6]; 3 to 4 weeks of pacing induced persistent AF, ref Wijffels et al., 1999) is given as 92%.
For `O=C(NCC1CCCCN1)c1cc(OCC(F)(F)F)ccc1OCC(F)(F)F` (stereo not shown) [flecainide], the Cardioversion rate [6, 9] is listed as 60%, the Cardioversion rate [6, 10] is listed as 33% and the Cardioversion rate [6, 11] is listed as 33%. The Cardioversion rate [6, 12] was 17%.
In the case of `N=C(N)c1ccc(OCCCCCOc2ccc(C(=N)N)cc2)cc1` [pentamidine], the QTc increase [8] is listed as “approx. 8%”.
